In brackets after ≈: the same amount, converted by molar mass. Activity calls are given as the source filed them. No cut-off for these calls is given here.
Legend:
Staphylococcus aureus [1] = test: Antibacterial activity against methicillin-resistant Staphylococcus aureus; type: functional, organism-based
Cryptococcus neoformans = test: Antifungal activity against Cryptococcus neoformans; type: functional, organism-based
Leishmania donovani [2] = test: Antileishmanial activity against Leishmania donovani at 40 ug/mL after 72 hrs by alamar blue assay; type: functional, organism-based
[3] = test system: Human immunodeficiency virus 1; test: Antiviral activity against HIV1 3B assessed as reverse transcriptase activity by enzyme immunoassay; type: functional, organism-based; settings: Human immunodeficiency virus 1, 3B
Staphylococcus aureus [4] = test: Antibacterial activity against Staphylococcus aureus; type: functional, organism-based
[5] = target: Beta-secretase 1 (Homo sapiens) (UniProt P56817); test: Inhibition of human recombinant BACE1 by FRET-based assay
Beta-secretase 1 (Homo sapiens), sequence (P56817 whole entry): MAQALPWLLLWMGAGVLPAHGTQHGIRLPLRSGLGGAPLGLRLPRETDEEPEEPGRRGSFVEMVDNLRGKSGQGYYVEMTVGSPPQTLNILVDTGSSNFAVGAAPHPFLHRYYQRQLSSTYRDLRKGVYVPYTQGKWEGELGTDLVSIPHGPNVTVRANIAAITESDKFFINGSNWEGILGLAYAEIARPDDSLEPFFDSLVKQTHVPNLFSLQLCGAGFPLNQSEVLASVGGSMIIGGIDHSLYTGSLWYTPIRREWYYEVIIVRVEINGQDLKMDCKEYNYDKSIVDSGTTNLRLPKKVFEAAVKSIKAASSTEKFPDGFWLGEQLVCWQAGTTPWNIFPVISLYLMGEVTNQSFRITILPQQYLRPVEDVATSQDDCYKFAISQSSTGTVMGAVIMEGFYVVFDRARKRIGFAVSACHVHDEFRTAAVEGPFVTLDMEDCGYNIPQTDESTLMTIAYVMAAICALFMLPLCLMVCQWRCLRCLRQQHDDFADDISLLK

[6] = target: T1, Acetylcholinesterase (Bos taurus) (UniProt P23795); test: Inhibition of bovine AChE
T1 sequence (whole entry): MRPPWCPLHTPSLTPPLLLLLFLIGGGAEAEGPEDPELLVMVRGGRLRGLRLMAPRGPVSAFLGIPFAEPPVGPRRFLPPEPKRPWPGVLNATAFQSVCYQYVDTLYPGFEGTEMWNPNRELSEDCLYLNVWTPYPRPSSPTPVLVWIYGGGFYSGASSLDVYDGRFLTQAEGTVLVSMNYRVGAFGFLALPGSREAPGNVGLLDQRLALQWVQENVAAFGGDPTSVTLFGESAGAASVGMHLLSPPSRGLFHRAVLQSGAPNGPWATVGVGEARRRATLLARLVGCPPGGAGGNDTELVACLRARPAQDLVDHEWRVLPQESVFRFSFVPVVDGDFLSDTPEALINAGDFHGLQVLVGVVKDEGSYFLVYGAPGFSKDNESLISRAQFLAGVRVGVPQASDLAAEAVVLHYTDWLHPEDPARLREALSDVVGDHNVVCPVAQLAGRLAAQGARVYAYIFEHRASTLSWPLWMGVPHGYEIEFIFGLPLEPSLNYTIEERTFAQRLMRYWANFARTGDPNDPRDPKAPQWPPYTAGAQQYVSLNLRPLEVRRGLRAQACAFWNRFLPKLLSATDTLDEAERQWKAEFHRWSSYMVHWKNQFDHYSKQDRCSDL

[7] = test system: Mycobacterium intracellulare; test: Antibacterial activity against Mycobacterium intracellular by alamar blue assay; type: functional, organism-based
Plasmodium falciparum [8] = test: Antimalarial activity after 72 hrs against chloroquine-sensitive Plasmodium falciparum D6 in erythrocytes at […] by LDH reporter assay; type: functional, organism-based
Plasmodium falciparum [9] = test: Antimalarial activity after 72 hrs against chloroquine-resistant Plasmodium falciparum W2 in erythrocytes at […] by LDH reporter assay; type: functional, organism-based
Vero [10] = test: Cytotoxicity against african green monkey Vero cells at 4.76 ug/mL by neutral red assay; type: cell-based; settings: chlorocebus sabaeus
Leishmania donovani [11] = test: Antileishmanial activity against Leishmania donovani after 72 hrs by alamar blue assay; type: functional, organism-based
Plasmodium falciparum [12] = test: Antimalarial activity after 72 hrs against chloroquine-resistant Plasmodium falciparum W2 in erythrocytes by LDH reporter assay; type: functional, organism-based; settings: W2, 72 h
Vero [13] = test: Cytotoxicity against african green monkey Vero cells by neutral red assay; type: cell-based; settings: chlorocebus sabaeus
[14] = test system: Mycobacterium tuberculosis; test: Antituberculosis activity against Mycobacterium tuberculosis H37Rv after 24 hrs by alamar blue assay; type: functional
Plasmodium falciparum [15] = test: Antimalarial activity after 72 hrs against chloroquine-sensitive Plasmodium falciparum D6 in erythrocytes by LDH reporter assay; type: functional, organism-based; settings: D6, 72 h
[16] = test system: Voltage-gated calcium channel; test: Blocking of calcium channel in human SH-SY5Y cells assessed as inhibition of KCL depolarization-induced cytosolic calcium increase at 1 uM; type: cell-based
[17] = target: Glycogen synthase kinase-3 beta (Homo sapiens) (UniProt P49841); test: Inhibition of GSK3-beta in human SH-SY5Y cells assessed as inhibition of tau phosphorylation at Ser396 at 5 uM after 24 hrs by ELISA sandwich method; type: cell-based
Glycogen synthase kinase-3 beta (Homo sapiens), sequence (P49841 whole entry, looked up): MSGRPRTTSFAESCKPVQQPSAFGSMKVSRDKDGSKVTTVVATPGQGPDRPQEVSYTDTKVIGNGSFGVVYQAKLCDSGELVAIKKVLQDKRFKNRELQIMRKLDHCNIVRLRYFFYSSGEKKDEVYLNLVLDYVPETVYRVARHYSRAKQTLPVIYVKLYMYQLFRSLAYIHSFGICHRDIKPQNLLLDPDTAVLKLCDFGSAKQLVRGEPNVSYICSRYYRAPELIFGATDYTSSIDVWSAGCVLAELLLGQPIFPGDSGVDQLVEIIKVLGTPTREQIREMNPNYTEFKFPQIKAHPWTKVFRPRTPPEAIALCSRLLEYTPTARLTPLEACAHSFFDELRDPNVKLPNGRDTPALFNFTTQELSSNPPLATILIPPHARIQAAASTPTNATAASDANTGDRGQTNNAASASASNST

[18] = target: Glycogen synthase kinase-3 beta (Homo sapiens) (UniProt P49841); test: Inhibition of human recombinant GSK3-beta assessed as incorporation of [33P]gammaATP into G2S peptide at 25 uM
SH-SY5Y = test: Cytotoxicity against human SH-SY5Y cells at 5 uM; type: cell-based

Structure (SMILES)	Activity (Staphylococcus aureus [1])	Activity (Cryptococcus neoformans)	IC50 [3] [µg/mL]	Activity (Staphylococcus aureus [4])	Activity [5]	Activity [6]	Activity (Vero [10])	IC50 (Leishmania donovani [11]) [µg/mL]	IC90 (Leishmania donovani [11]) [µg/mL]	IC50 (Plasmodium falciparum [12]) [µg/mL]	MIC [14] [µg/mL]	IC50 (Plasmodium falciparum [15]) [µg/mL]	other results
O=C1CCCN2[C@@H]3[C@@]45CN6CCCC/C=C\CC[C@@]3(C=C(c3nccc7c3[nH]c3ccccc37)[C@@H]4CC6)O[C@]2(CC1)C5	inactive	inactive	17.5 (≈ 31.1 µM)	inactive	inactive	inactive	Non-toxic						Activity (Leishmania donovani [2]): inactive; Activity [7]: inactive; Activity (Plasmodium falciparum [8]): inactive; Activity (Plasmodium falciparum [9]): inactive
O=C1CC[C@H]2C[C@]34CN5CCCC/C=C\CC[C@@]6(C=C(c7nccc8c7[nH]c7ccccc78)[C@@H]3CC5)O[C@H](CC1)N2[C@H]46	inactive	inactive		inactive	inactive	inactive	Non-toxic	18 (≈ 32 µM)	40 (≈ 71.1 µM)				Activity [7]: inactive; Activity (Plasmodium falciparum [8]): inactive; Activity (Plasmodium falciparum [9]): inactive
O=C1CCCN2[C@@H](CC1)C[C@]13CN4CCCC/C=C\CC[C@](O)(C=C(c5nccc6c5[nH]c5ccc(O)cc56)[C@@H]1CC4)[C@H]23					inactive	inactive	Non-toxic	2.5 (≈ 4.3 µM)	4.3 (≈ 7.4 µM)	0.87 (≈ 1.5 µM)	0.4 (≈ 0.689 µM)	0.78 (≈ 1.34 µM)	IC50 (Cryptococcus neoformans): 5.5 µg/mL (≈ 9.47 µM); IC50 (Vero [13]): 4.3 µg/mL (≈ 7.4 µM); IC50 [7]: 3.5 µg/mL (≈ 6.03 µM)
O=C1CCCN2[C@@H]3[C@@]45CN6CCCC/C=C\CC[C@@]3(C=C(c3nccc7c3[nH]c3ccc(O)cc37)[C@@H]4CC6)O[C@]2(CC1)C5	inactive	inactive		inactive	inactive	inactive	Non-toxic						Activity (Leishmania donovani [2]): inactive; Activity [7]: inactive; Activity (Plasmodium falciparum [8]): inactive; Activity (Plasmodium falciparum [9]): inactive
O=C1CCCN2[C@H]3[C@]45CN6CCCC/C=C\CC[C@]3(C=C(c3nccc7c3[nH]c3c(O)cccc37)[C@H]4CC6)O[C@]2(CC1)C5	inactive	inactive	14.9 (≈ 25.7 µM)	inactive	inactive	inactive	Non-toxic			1.1 (≈ 1.9 µM)	12.5 (≈ 21.6 µM)	0.84 (≈ 1.45 µM)	Activity (Leishmania donovani [2]): inactive; Activity [7]: inactive
Oc1cccc2c1[nH]c1c(C3=C[C@@]4(O)CC/C=C\CCCCN5CC[C@@H]3[C@]3(CC6/C=C\CCCCN6[C@H]34)C5)nccc12 (stereo partly specified)			0.59 (≈ 1.04 µM)		inactive	inactive		6.2 (≈ 11 µM)	11 (≈ 19.5 µM)	0.008 (≈ 0.0142 µM)	0.9 (≈ 1.59 µM)	0.006 (≈ 0.0106 µM)	IC50 (Staphylococcus aureus [1]): 4 µg/mL (≈ 7.08 µM); IC50 (Cryptococcus neoformans): 3 µg/mL (≈ 5.31 µM); inhibition (INH) [16]: 20%; Activity [17]: Active; IC50 (Staphylococcus aureus [4]): 0.9 µg/mL (≈ 1.59 µM); inhibition [18]: 86.7%; IC50 (Vero [13]): 1.1 µg/mL (≈ 1.95 µM); IC50 [7]: 1 µg/mL (≈ 1.77 µM); Activity (SH-SY5Y): Non-toxic
C1=C\CC[C@]23CN4CCCC/C=C\CC[C@@]5(O[C@H]5[C@@H](c5nccc6c5[nH]c5ccccc56)[C@@H]2CC4)[C@@H]3NCCCC/1					inactive	inactive							
O=CC1=C[C@@]2(O)CC/C=C\CCCCN3CC[C@@H]1[C@]1(C[C@@H]4/C=C\CCCCN4[C@H]12)C3													inhibition [18]: 0%
O=CC1=C[C@]23CC/C=C\CCCCN4CC[C@@H]1[C@]1(C[C@@H]5/C=C\CCC[C@@H](O2)N5[C@H]13)C4					inactive	inactive							
Oc1cccc2c1[nH]c1c([C@H]3[C@@H]4CCN5CCCC/C=C\CC[C@@]6(O[C@@H]36)[C@@H]3NCCCC/C=C\CC[C@@]34C5)nccc12					inactive	inactive							
Oc1cccc2c3cc[nH]c(C4=C[C@]56CC/C=C\CCCCN7CC[C@@H]4[C@]4(C[C@@H]8/C=C\CCC[C@@H](O5)N8[C@H]46)C7)c-3nc12 [12,28-OXA-8-HYDROXY-MANZAMINE A]	inactive	inactive		inactive	inactive	inactive	Non-toxic						Activity [7]: inactive; Activity (Plasmodium falciparum [8]): inactive; Activity (Plasmodium falciparum [9]): inactive
C1=C(c2[nH]ccc3c4ccccc4nc2-3)[C@@H]2CCN3CCCC/C=C\CC[C@]14O[C@@H]1CCC/C=C\[C@H]5C[C@@]2(C3)[C@H]4N51 [12,28-OXAMANZAMINE A]	inactive	inactive	22.2 (≈ 40.6 µM)	inactive	inactive	inactive	Non-toxic	7.8 (≈ 14.3 µM)	50 (≈ 91.4 µM)				Activity [7]: inactive; Activity (Plasmodium falciparum [8]): inactive; Activity (Plasmodium falciparum [9]): inactive
C[C@@H]1[C@H](O)[C@@H](C)/C=C/C=C/C=C/C=C/C=C/C=C/C=C/[C@H](O[C@@H]2O[C@H](C)[C@@H](O)[C@H](N)[C@@H]2O)C[C@@H]2O[C@](O)(C[C@@H](O)C[C@@H](O)[C@H](O)CC[C@@H](O)C[C@@H](O)CC(=O)O[C@H]1C)C[C@H](O)[C@H]2C(=O)O [AMPHOTERICIN B]								0.06 (≈ 0.0649 µM)	0.15 (≈ 0.162 µM)				IC50 (Cryptococcus neoformans): 0.15 µg/mL (≈ 0.162 µM)
C[C@@H]1CC[C@H]2[C@@H](C)C(=O)O[C@@H]3O[C@@]4(C)CC[C@@H]1[C@]32OO4 [ARTEMISININ]										0.0063 (≈ 0.0223 µM)		0.01 (≈ 0.0354 µM)	
O=C(O)c1cn(C2CC2)c2cc(N3CCNCC3)c(F)cc2c1=O [CIPROFLOXACIN]													IC50 [7]: 0.25 µg/mL (≈ 0.754 µM)
O=C1CCCN2[C@@H](CC1)C[C@]13CN4CCCC/C=C\CC[C@](O)(C=C(c5nccc6c5[nH]c5ccccc56)C1CC4)[C@H]23 (stereo partly specified) [MANZAMINE E]	inactive	inactive	13.1 (≈ 23.2 µM)	inactive	inactive	inactive	Non-toxic	3.8 (≈ 6.73 µM)	6.8 (≈ 12 µM)	4.76 (≈ 8.43 µM)	3.8 (≈ 6.73 µM)	3.4 (≈ 6.02 µM)	inhibition [18]: 53.6%; IC50 [7]: 12.5 µg/mL (≈ 22.1 µM)
O=C1CCCN2[C@@H](CC1)C[C@]13CN4CCCC/C=C\CC[C@](O)(C=C(c5nccc6c5[nH]c5c(O)cccc56)C1CC4)[C@H]23 (stereo partly specified) [MANZAMINE F]	inactive		7.3 (≈ 12.6 µM)	inactive	inactive	inactive	Non-toxic	4.2 (≈ 7.23 µM)	7 (≈ 12.1 µM)	1.7 (≈ 2.93 µM)	2.6 (≈ 4.48 µM)	0.78 (≈ 1.34 µM)	IC50 (Cryptococcus neoformans): 6.5 µg/mL (≈ 11.2 µM); inhibition [18]: 29.9%; IC50 [7]: 6.25 µg/mL (≈ 10.8 µM)
Oc1ccc2[nH]c3c(C4=C[C@@]5(O)CC/C=C\CCCCN6CC[C@@H]4[C@]4(C[C@@H]7/C=C\CCCCN7[C@H]45)C6)nccc3c2c1 [MANZAMINE Y]		inactive			inactive	inactive		1.6 (≈ 2.83 µM)	8 (≈ 14.2 µM)	0.85 (≈ 1.51 µM)	5.2 (≈ 9.21 µM)	0.42 (≈ 0.744 µM)	IC50 (Staphylococcus aureus [1]): 15 µg/mL (≈ 26.6 µM); IC50 (Staphylococcus aureus [4]): 15 µg/mL (≈ 26.6 µM); inhibition [18]: 74.3%; IC50 (Vero [13]): 3.9 µg/mL (≈ 6.91 µM); IC50 [7]: 3.5 µg/mL (≈ 6.2 µM)
N=C(N)c1ccc(OCCCCCOc2ccc(C(=N)N)cc2)cc1 [PENTAMIDINE]								2.1 (≈ 6.17 µM)	10 (≈ 29.4 µM)				
CO[C@H]1/C=C/O[C@@]2(C)Oc3c(C)c(O)c4c(O)c(c(/C=N/N5CCN(C)CC5)c(O)c4c3C2=O)NC(=O)/C(C)=C\C=C\[C@H](C)[C@H](O)[C@@H](C)[C@@H](O)[C@@H](C)[C@H](OC(C)=O)[C@@H]1C [RIFAMPIN]											0.5 (≈ 0.608 µM)		
Cc1cn([C@H]2C[C@H](N=[N+]=[N-])[C@@H](CO)O2)c(=O)[nH]c1=O [ZIDOVUDINE]			0.004 (≈ 0.015 µM)										

From ChEMBL document CHEMBL1142603, “Manzamine B and E and ircinal A related alkaloids from an Indonesian Acanthostrongylophora sponge and their activity against infectious, tropical parasitic, and Alzheimer's diseases” (J Nat Prod, 2006)
